Measured values reported in patent US20250082766A1, “TREATMENT OF BRAIN TUMORS BY TARGETING THE CHOLESTEROL PATHWAY IN ASTROCYES” (Ramot at Tel-Aviv University Ltd., priority 2022, published 2025).

Tests used:
[1] = system: GL261 and CT-2A glioma cells; assay: Cell viability assay (Annexin V/DAPI FACS) of glioma cells; assay type: cell-based, mouse; conditions: 24-OHC for 72 hours; GL261 and CT-2A glioma cell lines; FIGS. 5J-K
Method: FIGS. 5A-N illustrate that astrocyte-derived cholesterol supports glioma survival. (FIGS. 5A-D) Real-time changes in the ECAR (FIGS. 5A-B) and oxygen consumption rate (OCR) (FIGS. 5C-D) of GL261 glioma cells, cultured in media supplemented with full serum (FCS, fetal calf serum) or lipoprotein-deprived serum (LPDS, Lipoprotein-deficient serum) for 18 hours and measured using Seahorse. Oligo, oligomycin; FCCP, carbonyl cyanide4-(trifluoromethoxy) phenylhydrazone; R/A, rotenone plus antimycin A; 2-DG, 2-deoxy-d-glucose. Glycolysis, glycolytic capacity and glycolytic reserve were extracted from the ECAR reading, and basal respiration, adenosine triphosphate (ATP) production, Maximal respiration, and spare respiratory capacity were determined based on OCR. Data are representative of two independent experiments (n=6 technical replicates per experiment). (FIG. 5E) Percentage of cell death of GL261 and CT-2A glioma cells, or primary astrocytes, cultured in FCS or LPDS for 5 days; as determined by Annexin-V assay (n=5 independent experiments). […] Representative flow cytometry plots of Annexin-V/DAPI staining from each group are shown in FIG. 5F and quantification analyses of cholesterol rescue are in FIG. 5G (n=5 biologically independent experiments). (FIGS. 5H-K) Representative images and quantification of LDLR expression (Immunoblot, FIGS. 5H-I) and cell death via FACS analysis of Annexin V/DAPI staining (FIGS. 5J-K) in response to endogenous LXR agonists (24-OHC) or Mock (DMSO) treatment in GL261 and CT-2A cells (n=3 biologically independent experiments). […] (FIGS. 5L-M) Representative flow cytometry plots of murine GL261 and CT-2A glioma cells co-cultured for 5 days with primary mouse astrocytes are shown in FIG. 5L and quantification analyses in FIG. 5M (n=4 biologically independent experiments). (FIG. 5N) quantification analyses of human U87EGFRvIII (U87) glioma cells co-cultured with human primary astrocytes for 5 days (n=3 biologically independent experiments). […]

LDLR [2] = assay: LDLR expression by immunoblot in glioma cells treated with LXR agonist; assay type: cell-based, mouse; conditions: GL261 and CT-2A cells; 24-OHC vs Mock (DMSO); FIGS. 5H-I
Method: FIGS. 5A-N illustrate that astrocyte-derived cholesterol supports glioma survival. (FIGS. 5A-D) Real-time changes in the ECAR (FIGS. 5A-B) and oxygen consumption rate (OCR) (FIGS. 5C-D) of GL261 glioma cells, cultured in media supplemented with full serum (FCS, fetal calf serum) or lipoprotein-deprived serum (LPDS, Lipoprotein-deficient serum) for 18 hours and measured using Seahorse. Oligo, oligomycin; FCCP, carbonyl cyanide4-(trifluoromethoxy) phenylhydrazone; R/A, rotenone plus antimycin A; 2-DG, 2-deoxy-d-glucose. Glycolysis, glycolytic capacity and glycolytic reserve were extracted from the ECAR reading, and basal respiration, adenosine triphosphate (ATP) production, Maximal respiration, and spare respiratory capacity were determined based on OCR. […] (FIG. 5E) Percentage of cell death of GL261 and CT-2A glioma cells, or primary astrocytes, cultured in FCS or LPDS for 5 days; as determined by Annexin-V assay (n=5 independent experiments). […] Representative flow cytometry plots of Annexin-V/DAPI staining from each group are shown in FIG. 5F and quantification analyses of cholesterol rescue are in FIG. 5G (n=5 biologically independent experiments). […] (FIG. 5N) quantification analyses of human U87EGFRvIII (U87) glioma cells co-cultured with human primary astrocytes for 5 days (n=3 biologically independent experiments). […]

[3] = system: murine GL261 glioma cells co-cultured with astrocytes; assay: LPDS-induced glioma cell death in astrocyte-glioma co-cultures with cholesterol-lowering drugs, Annexin-V assay; assay type: cell-based, mouse; conditions: cholesterol-deprived (LPDS) astrocyte-GL261 co-cultures, FIGS. 15A-D, n=2
Description: FIGS. 15A-D illustrate that cholesterol-lowering drugs inhibit astrocyte-mediated rescue of glioma cells from cholesterol deprivation. Analysis of LPDS-induced glioma cell death, co-cultured with astrocytes, in the presence of absence of cholesterol-lowering drugs, by Annexin-V assay. (FIGS. 15A-C) Representative flow cytometry plots of murine GL261 treated with statins (FIG. 15A) or ABCA1 inhibitors Probucol (FIG. 15B), and Glyburide (FIG. 15C), and this quantification analyses (FIG. 15D). n=2 biologically independent experiments.
Moreover, statins and probucol, or glyburide, target different nodes in the cholesterol efflux mechanism (synthesis and extracellular export). Therefore, the present inventor further tests whether the combinations of the two drug groups would have a synergistic effect on glioma viability.

GL261 glioma (GBM) = assay: Primary GBM model: GL261 intracranially implanted mice treated with Probucol; assay type: in vivo, mouse; conditions: summary statement on ABCA1 inhibitors; FIGS. 16A-E
Method: (FIG. 16A) Illustration of the experimental design for primary and recurrent GBM models. (FIGS. 16B-D) WT mice were intracranially (IC) implanted with GL261 cells. Tumor-bearing mice were treated daily, starting at day 10, with Probucol (30 mg/kg) or vehicle. (FIG. 16B) Tumor growth curve as determined by IVIS, (FIG. 16C) mice weight loss, and (FIG. 16D) Kaplan-Meier curves assess overall survival. p-value by Two-way ANOVA. Data represent Mean±SEM, 8 mice/group. (FIG. 16E) Illustration of the predicted effects of probucol or glyburide in the different models/disease stages.
For intracranial mouse glioma, mice were anesthetized, positioned in a Stereotaxic Alignment System, and injected with 1.5×10^4 GL261 or CT-2A cells in 2 μl of DMEM. Injections were made to the right frontal lobe, approximately 2.5 mm lateral and 0.1 mm caudal from bregma at a depth of 3 mm. In-vivo bioluminescence imaging, following XenoLight D-luciferin Potassium Salt administration (150 mg/kg) i.p. administration, was determined using IVIS Spectrum system (PerkinElmer). Ganciclovir (GCV, Cymevene, Roche #SAP-10051872; 25 mg/kg), Diphtheria-toxin (DT, Sigma-Aldrich, #D0564; 1100 ng/mice), or vehicle control (PBS) were administered daily following tumor establishment (day 10), as previously described (Mayo, L., et al. Nat Med (2014) 20: 1147-1156). CD8^+ T cell depletion was performed using an anti-CD8 monoclonal antibody ([…], Bioxcell) or an isotype control monoclonal antibody (2A3, Bioxcell), as previously described (Takenaka, M. C. et al. Control of tumor-associated macrophages and T cells in glioblastoma via AHR and CD39. Nat Neurosci 22, 729-740 (2019)). GBM-bearing mice were intraperitoneally injected (0.1 mg/mouse) with an anti-CD8 or an isotype control mAbs, 1 day before, and 7 days after, GCV administration. CD8 T-cell depletion was validated by FACS analysis using a Sony SH800 FACS instrument (Sony Biotechnology). Data analysis was performed using FlowJo v10 (TreeStar, USA). The following reagents were used for analysis: anti-CD45 (1:100; 30-F11, Biolegend, #103106), anti-CD3[…] (1:50; 145-2C11, Biolegend #100335), and anti-CD8a (1:100; 53-6.7, Biolegend, #100765).
To investigate this hypothesis, C57Bl/6 mice are implanted with GFP^+ luciferase-expressing glioma cells (GL261 or CT-2A), using two subtype models—primary or recurrent GBM/brain tumor resection (as illustrated in FIG. 16A), and are treated daily with probucol, glyburide, or vehicle control, with or without a potent statin (e.g., simvastatin as shown in FIG. 15A). The dosage of the different drugs is optimized based on FDA guidelines for conversions from human-accepted dosages (Table 5 below).
In the primary GBM model (pGBM)—10 days after tumor implantation, the mice are treated with cholesterol-lowering drugs (FIG. 16A). In the recurrent GBM model (rGBM), 12-14 days after inoculation of the mice with the tumor cells, the visible tumor(s) are surgically removed, based on GFP expression, under a stereoscope. The mice are then allowed to recover for a week and then are treated with cholesterol-lowering drugs (FIG. 16A). Of note, tumor formation or recurrence is monitored by bioluminescence (BLI) signals from the tumor cells on in-vivo imaging system (IVIS) spectrum and quantified with Living Image software. Mice are monitored for tumor growth, peritumoral brain edema formation, and mouse survival until the experimental endpoint (extreme lethargy or body weight reduction of greater than 20%), or are euthanized seven days after treatment with the cholesterol-lowering drugs to assess tumor burden, angiogenesis, BBB stability, and immunomodulatory activity in-situ. Tumor volume is evaluated in-vivo by determining tumor BLI, and by histopathology analysis postmortem. Peritumoral brain edema is evaluated in-vivo using IVISense™ Edema (Superhance™ 680) fluorescent probe. […]

[4] = biological target: cholesterol transporter ABCA1 (Homo sapiens, UniProt O95477); conditions: cited from earlier work
cholesterol transporter ABCA1, sequence (O95477 whole entry): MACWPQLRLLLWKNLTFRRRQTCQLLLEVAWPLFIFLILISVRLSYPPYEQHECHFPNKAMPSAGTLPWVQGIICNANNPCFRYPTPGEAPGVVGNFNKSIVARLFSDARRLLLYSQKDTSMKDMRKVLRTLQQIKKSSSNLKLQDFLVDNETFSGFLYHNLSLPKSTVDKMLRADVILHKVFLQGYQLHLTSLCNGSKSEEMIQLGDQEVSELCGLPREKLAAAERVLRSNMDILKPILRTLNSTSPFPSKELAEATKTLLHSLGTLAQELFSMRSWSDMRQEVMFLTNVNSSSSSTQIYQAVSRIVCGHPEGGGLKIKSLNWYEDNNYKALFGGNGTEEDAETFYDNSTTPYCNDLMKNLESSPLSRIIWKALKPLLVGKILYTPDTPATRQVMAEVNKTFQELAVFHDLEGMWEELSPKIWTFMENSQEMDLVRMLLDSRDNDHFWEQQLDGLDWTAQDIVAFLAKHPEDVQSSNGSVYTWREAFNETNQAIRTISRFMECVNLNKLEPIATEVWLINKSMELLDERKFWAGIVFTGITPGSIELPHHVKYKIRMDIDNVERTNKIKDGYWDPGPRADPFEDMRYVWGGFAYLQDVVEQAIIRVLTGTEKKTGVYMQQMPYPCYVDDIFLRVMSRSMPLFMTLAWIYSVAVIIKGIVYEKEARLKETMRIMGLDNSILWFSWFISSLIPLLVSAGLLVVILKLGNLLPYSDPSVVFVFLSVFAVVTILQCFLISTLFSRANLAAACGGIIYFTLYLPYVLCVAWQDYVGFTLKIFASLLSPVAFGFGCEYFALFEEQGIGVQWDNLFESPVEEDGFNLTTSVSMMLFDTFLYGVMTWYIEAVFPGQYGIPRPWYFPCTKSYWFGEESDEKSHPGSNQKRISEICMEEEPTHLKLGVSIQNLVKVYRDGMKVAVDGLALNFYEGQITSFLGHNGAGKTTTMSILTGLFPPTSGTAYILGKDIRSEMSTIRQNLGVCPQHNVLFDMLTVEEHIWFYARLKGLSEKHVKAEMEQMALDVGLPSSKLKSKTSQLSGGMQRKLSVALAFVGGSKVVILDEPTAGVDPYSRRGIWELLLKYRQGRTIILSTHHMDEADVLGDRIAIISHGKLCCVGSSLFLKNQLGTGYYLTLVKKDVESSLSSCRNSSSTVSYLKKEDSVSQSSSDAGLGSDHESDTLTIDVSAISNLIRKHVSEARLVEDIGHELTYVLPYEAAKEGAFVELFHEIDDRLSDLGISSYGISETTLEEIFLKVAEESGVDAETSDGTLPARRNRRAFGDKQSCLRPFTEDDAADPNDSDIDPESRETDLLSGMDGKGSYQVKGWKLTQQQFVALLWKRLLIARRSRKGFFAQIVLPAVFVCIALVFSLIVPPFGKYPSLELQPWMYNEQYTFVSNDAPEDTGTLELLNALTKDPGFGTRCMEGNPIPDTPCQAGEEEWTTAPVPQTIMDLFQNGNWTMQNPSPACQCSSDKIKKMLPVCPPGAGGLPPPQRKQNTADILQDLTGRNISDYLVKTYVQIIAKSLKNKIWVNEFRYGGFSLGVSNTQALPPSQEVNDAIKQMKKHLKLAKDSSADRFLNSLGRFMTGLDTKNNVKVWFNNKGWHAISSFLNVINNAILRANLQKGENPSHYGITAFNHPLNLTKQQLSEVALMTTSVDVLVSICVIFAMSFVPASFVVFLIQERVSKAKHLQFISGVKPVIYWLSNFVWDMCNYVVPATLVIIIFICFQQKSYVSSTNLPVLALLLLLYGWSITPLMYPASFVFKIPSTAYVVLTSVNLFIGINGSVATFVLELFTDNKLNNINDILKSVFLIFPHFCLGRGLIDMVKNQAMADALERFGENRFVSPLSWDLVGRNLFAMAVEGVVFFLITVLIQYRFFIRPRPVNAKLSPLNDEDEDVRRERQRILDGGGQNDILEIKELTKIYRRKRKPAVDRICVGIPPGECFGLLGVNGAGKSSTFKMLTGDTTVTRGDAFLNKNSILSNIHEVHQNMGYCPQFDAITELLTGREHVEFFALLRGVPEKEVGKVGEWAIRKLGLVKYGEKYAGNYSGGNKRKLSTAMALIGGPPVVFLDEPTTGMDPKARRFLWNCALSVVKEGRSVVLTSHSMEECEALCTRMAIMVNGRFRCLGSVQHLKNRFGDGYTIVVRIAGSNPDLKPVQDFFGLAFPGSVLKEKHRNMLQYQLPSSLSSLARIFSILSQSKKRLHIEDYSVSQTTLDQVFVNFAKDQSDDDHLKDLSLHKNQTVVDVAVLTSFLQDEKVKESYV

glioma [5] = conditions: experimental glioma mouse models; cited from earlier work
glioma [6] = conditions: OXPHOS-targeting drugs; cited from earlier work
[7] = system: tumours with EGFR or IDH1 mutations; conditions: patient-derived GBM xenograft mice; cited from earlier work
LDLR [8] = assay: LDLR levels (immunoblot) in GL261 cells treated with conditioned media of PCSK9-transduced astrocytes; assay type: cell-based, mouse; conditions: astrocyte-conditioned media (wild type PCSK9-encoding vs empty lentivirus), 24 hours; FIG. 21B
Method: FIGS. 21A-D illustrate that PCSK9 overexpression in the cancer microenvironment halts glioma progression. (FIG. 21A) Box plot analysis of TCGA gene expression for PCSK9 in normal (Norm; n=207), GBM patients (n=163), or low-grade glioma (LGG, n=518). n represents the number of patients per group. (FIG. 21B) Astrocytes were transduced with wild type PCSK9-encoding or empty lentivirus, and 24 hours later, the media was collected and transferred to glioma cells. Representative immunoblot analyses comparing LDLR and ACTIN levels in GL261 glioma cells treated with the astrocyte-conditioned media for 24 hours. (n=2 biologically independent experiments). […] PCSK9-encoding or empty lentiviruses were injected into the TME of GL261-bearing mice 9 and 15 days after tumor implantation. (FIG. 21C) Analysis of tumor size, based on tumor bioluminescence. (FIG. 21D) Kaplan-Meier curves assessing overall survival of these groups. Data are representative of two independent experiments with n=6 mice/group. Data are shown as mean±s.e.m. P values were determined by two-sided Student's t-tests (FIG. 21A), two-way ANOVA (FIG. 21C), or Log rank (Mantel-Cox) test (FIG. 21D). *P<0.05, **P<0.01, ***P<0.001.
Cells were lysed in RIPA buffer supplemented with protease inhibitors (Cell Signaling). […] Quantification was done using Image Studio Lite software version 5.2 (LI-COR Biosciences).

Compound: CC(C)[C@@H](O)CC[C@@H](C)[C@H]1CC[C@H]2[C@@H]3CC=C4C[C@@H](O)CC[C@]4(C)[C@H]3CC[C@]12C [24-OHC, 24(S)-hydroxycholesterol]
- glioma cell death [1]: dramatic cell death
- LDLR expression (degradation) (LDLR [2]): dose-dependent LDLR degradation

Compound: COc1ccc(Cl)cc1C(=O)NCCc1ccc(S(=O)(=O)NC(=O)NC2CCCCC2)cc1 [Glyburide]
- attenuation of the astrocyte-dependent rescue of glioma cells from cholesterol deprivation (glioma cell death), relative efficiency [3]: the most potent
- survival of subjects having GBM in-vivo (GL261 glioma (GBM)): prolonging survival
- tumor size of subjects having GBM in-vivo (GL261 glioma (GBM)): decreasing tumor size
- weight loss of subjects having GBM in-vivo (GL261 glioma (GBM)): preventing weight loss
- ABCA1 inhibitor potency [4]: potent

Compound: FC(F)(F)c1ccc(CNc2ccc(Cc3c[nH]c4ncc(Cl)cc34)cn2)cn1 [PLX3397]
- glioma expansion (glioma [5]): reduces glioma expansion

Compound: CCc1n(CC(=O)O[C@@H]2C[C@H](C)CC[C@H]2C(C)C)c2ccccc2[n+]1C.[Cl-] [Gboxin]
- glioma proliferation and cell death (glioma [6]): inhibit glioma proliferation and induce cell death
- growth of tumours [7]: suppresses the growth of tumours

Compound: PCSK9: wild type PCSK9 secreted into astrocyte-conditioned medium by lentivirus-transduced astrocytes
- levels of LDLR in GL261 glioma cells (LDLR [8]): decreased levels of LDLR
